Experimental data published in article PMC4805251, “Novel Antimicrobial Peptides EeCentrocins 1, 2 and EeStrongylocin 2 from the Edible Sea Urchin Echinus esculentus Have 6-Br-Trp Post-Translational Modifications” (PLoS ONE, 2016).
Read-outs that look alike come from different tables or passages of the source. Square brackets hold non-standard residues; d marks the D form. Peptide text beside a SMILES is read from it. Trp(6-Br) = N[C@@H](Cc1c[nH]c2cc(Br)ccc12)C(=O)O

Key:
Format in all cases: cell-based
[1] = system: Corynebacterium glutamicum (ATCC 13032)
Excerpt: (§1) Organic phase extract, SPE eluates and HPLC-fractions were screened for antibacterial activity against two strains of Gram-positive and two strains of Gram-negative bacteria; Corynebacterium glutamicum (ATCC 13032), Staphylococcus aureus (ATCC 9144), Pseudomonas aeruginosa #1 (ATCC 27853) and Escherichia coli #1 (ATCC 25922). For extended antimicrobial bioactivity screening, the following bacterial strains were used, three strains of Gram-positive bacteria; S. epidermidis #1 (5179-R1) kindly provided by Holger Rohde, S. epidermidis #2, RP62A (ATCC 35984) and Bacillus subtilis (ATCC 23857) in addition to the Gram-negative P. aeruginosa #2, PA 01 (ATCC 15692, DSM 19880) and E. coli #2, NR 698 (MC4100/ptD4213).
(§2) Cultures stored at -80°C were smeared onto agar plates and cultured for 24 h at 35°C. One colony of each bacterial strain was transferred to 5 ml liquid Müller-Hinton (MH, Difco, Lawrence, KS, USA) medium in a glass tube and left shaking at room temperature overnight at 600 rpm. The cultures of actively growing bacteria (20 μl) were further inoculated in 5 ml MH medium and left shaking for 2 h at room temperature. The antibacterial assays were performed as previously described by. Briefly, the bacterial cultures were diluted with medium to 1.3–1.5 × 10^4 bacteria/ml final concentrations and an aliquot of 50 μl was added to each well in 96-well Nunclon^TM microtiter plates (Nagle Nunc Int., Denmark) preloaded with 50 μl test sample solutions, i.e. extracts, eluates or peptides.
(§3) The test plates were incubated for 24 h at 35°C with optical density (OD595) recorded every hour using an Envision 2103 multilabel reader, controlled by the Wallac Envision manager (PerkinElmer, CT, USA). Antibacterial activity was defined as a sample showing >90% inhibition (as measured by optical density) compared to the negative (growth) controls, consisting of bacteria and water. Oxytetracycline (20 μM) served as a positive (inhibition) control. The minimum inhibitory concentration (MIC) was defined as the lowest concentration of a sample displaying >90% inhibition.
(§4) ACN-phases and SPE eluates were tested with two-fold serial dilutions ranging from 5.0 to 0.005 mg/ml (5.0, 2.5, 1.25, 0.63, 0.31, 0.16, 0.08, 0.04, 0.02, 0.01, 0.005 mg/ml) whereas HPLC-fractions were tested undiluted for antibacterial activity. Pure, native peptides and synthetic peptides (described in section 2.11) were tested for antimicrobial activity in concentrations ranging from 100 to 0.1 μM in two-fold serial dilutions (100, 50, 25, 12.5, 6.25, 3.13, 1.56, 0.78, 0.39, 0.20, 0.10 μM). Antimicrobial assays involving natural peptides (i.e. fractionated natural material) were run only once due to limited quantities, whereas all other assays were run in triplicates.

[2] = system: Pseudomonas aeruginosa #1 (ATCC 27853)
Excerpt: as §1, §2, §3, §4

[3] = system: Bacillus subtilis (ATCC 23857)
Excerpt: as §1, §2, §3, §4

[4] = system: Staphylococcus aureus (ATCC 9144)
Excerpt: as §1, §2, §3, §4

[5] = system: P. aeruginosa #2, PA 01 (ATCC 15692, DSM 19880)
Excerpt: as §1, §2, §3, §4

[6] = system: S. epidermidis #1 (5179-R1)
Excerpt: as §1, §2, §3, §4

[7] = system: S. epidermidis #2, RP62A (ATCC 35984)
Excerpt: as §1, §2, §3, §4

[8] = system: Escherichia coli #1 (ATCC 25922)
Excerpt: as §1, §2, §3, §4

[9] = system: E. coli #2, NR 698 (MC4100/ptD4213)
Excerpt: as §1, §2, §3, §4

[10] = system: Gram-positive and Gram-negative bacteria (tested strains); settings: 24 h
Excerpt: as §1, with “(MC4100/ptD4213). […]” for “(MC4100/ptD4213).”
The test plates were incubated for 24 h at 35°C with optical density (OD595) recorded every hour using an Envision 2103 multilabel reader, controlled by the Wallac Envision manager (PerkinElmer, CT, USA). […]
ACN-phases and SPE eluates were tested with two-fold serial dilutions ranging from 5.0 to 0.005 mg/ml (5.0, 2.5, 1.25, 0.63, 0.31, 0.16, 0.08, 0.04, 0.02, 0.01, 0.005 mg/ml) whereas HPLC-fractions were tested undiluted for antibacterial activity. […] Antimicrobial assays involving natural peptides (i.e. fractionated natural material) were run only once due to limited quantities, whereas all other assays were run in triplicates.

[11] = system: Candida albicans (ATCC 10231)
Experimental: (§5) The synthetic peptides (see section 2.11) were also screened for antifungal activity against Candida albicans (ATCC 10231), Saccharomyces cerevisiae, Rhodotorula sp., Aureobasidium pullulans and Cladosporium sp. The antifungal assay was performed as described previously. Briefly, fungal spores were dissolved in potato dextrose broth (Difco, Lawrence, KS, USA) to a concentration of 4 × 10^5 spores/ml. The spores (50 μl) were inoculated on 96-well Nunclon^TM microtiter plates containing the synthetic peptides (50 μl) dissolved in MQ-H2O. […] MIC was defined as the lowest concentration of peptide giving no visible fungal growth. The negative (growth) control contained medium and fungal solution.
as §4

Saccharomyces cerevisiae = system: Saccharomyces cerevisiae
Experimental: as §5, §4

Cladosporium sp. = system: Cladosporium sp.
Experimental: as §5, §4

Rhodotorula sp. = system: Rhodotorula sp.
Experimental: as §5, §4

Aureobasidium pullulans = system: Aureobasidium pullulans
Experimental: as §5, §4

CC(C)C[C@H](NC(=O)[C@H](C)NC(=O)CNC(=O)[C@H](CS)NC(=O)[C@H](C)NC(=O)[C@H](CCCCN)NC(=O)[C@H](CO)NC(=O)[C@H](C)NC(=O)[C@H](Cc1ccccc1)NC(=O)CNC(=O)[C@H](C)NC(=O)[C@@H](NC(=O)[C@H](CCCCN)NC(=O)[C@H](CCCNC(=N)N)NC(=O)CNC(=O)[C@H](C)NC(=O)[C@H](CC(N)=O)NC(=O)[C@H](CCCNC(=N)N)NC(=O)[C@@H](NC(=O)[C@H](CCCCN)NC(=O)[C@H](CC(=O)O)NC(=O)[C@@H](NC(=O)[C@@H](NC(=O)[C@H](CCCNC(=N)N)NC(=O)[C@H](CCCNC(=N)N)NC(=O)[C@H](Cc1c[nH]c2cc(Br)ccc12)NC(=O)[C@H](Cc1c[nH]c2cc(Br)ccc12)NC(=O)CN)[C@@H](C)O)C(C)C)C(C)C)C(C)C)C(=O)NCC(=O)N[C@@H](Cc1c[nH]cn1)C(=O)O [EeCentrocin 1 HC-diBr] (H-G[Trp(6-Br)][Trp(6-Br)]RRTVDKVRNAGRKVAGFASKACGALGH-OH)
>100 µM: MIC S. cerevisiae (Saccharomyces cerevisiae; 24 h) | MIC raw data S. cerevisiae (Saccharomyces cerevisiae; parallel 1 of three) | MIC raw data S. cerevisiae (Saccharomyces cerevisiae; parallel 2 of three) | MIC raw data S. cerevisiae (Saccharomyces cerevisiae; parallel 3 of three) | MIC Cladosporium sp. (Cladosporium sp.; 24 h) | MIC raw data Cladosporium sp. (Cladosporium sp.; parallel 1 of three) | MIC raw data Cladosporium sp. (Cladosporium sp.; parallel 2 of three) | MIC raw data Cladosporium sp. (Cladosporium sp.; parallel 3 of three)
12.5 µM: MIC raw data Rhodotorula sp. (Rhodotorula sp.; parallel 1 of three) | MIC raw data Rhodotorula sp. (Rhodotorula sp.; parallel 2 of three) | MIC raw data Rhodotorula sp. (Rhodotorula sp.; parallel 3 of three)
0.39 µM: MIC raw data C. glutamicum ([1]; parallel 3 of three)
1.56 µM: MIC raw data P. aeruginosa #1 ([2]; parallel 1 of three) | MIC raw data P. aeruginosa #1 ([2]; parallel 2 of three) | MIC raw data P. aeruginosa #1 ([2]; parallel 3 of three) | MIC raw data B. subtilis ([3]; parallel 1 of three) | MIC raw data B. subtilis ([3]; parallel 2 of three) | MIC raw data S. aureus ([4]; parallel 3 of three) | MIC raw data E. coli #1 ([8]; parallel 1 of three) | MIC raw data E. coli #1 ([8]; parallel 2 of three) | MIC raw data E. coli #2 ([9]; parallel 1 of three) | MIC raw data E. coli #2 ([9]; parallel 2 of three)
0.78 µM: MIC C. glutamicum ([1]; ATCC 13032, 24 h) | MIC raw data C. glutamicum ([1]; parallel 1 of three) | MIC raw data C. glutamicum ([1]; parallel 2 of three) | MIC raw data B. subtilis ([3]; parallel 3 of three) | MIC raw data E. coli #1 ([8]; parallel 3 of three) | MIC raw data E. coli #2 ([9]; parallel 3 of three)
3.13 µM: MIC S. aureus ([4]; ATCC 9144, 24 h) | MIC raw data S. aureus ([4]; parallel 1 of three) | MIC raw data S. aureus ([4]; parallel 2 of three) | MIC P. aeruginosa #2 ([5]; ATCC 15692, 24 h) | MIC raw data P. aeruginosa #2 ([5]; parallel 1 of three) | MIC raw data P. aeruginosa #2 ([5]; parallel 2 of three) | MIC raw data P. aeruginosa #2 ([5]; parallel 3 of three) | MIC S. epidermidis #2 ([7]; ATCC 35984, 24 h) | MIC raw data S. epidermidis #2 ([7]; parallel 1 of three) | MIC raw data S. epidermidis #2 ([7]; parallel 2 of three) | MIC raw data S. epidermidis #2 ([7]; parallel 3 of three)
6.25 µM: MIC S. epidermidis #1 ([6]; #1 (5179-R1, 24 h)) | MIC raw data S. epidermidis #1 ([6]; parallel 1 of three) | MIC raw data S. epidermidis #1 ([6]; parallel 2 of three) | MIC raw data S. epidermidis #1 ([6]; parallel 3 of three) | MIC A. pullulans (Aureobasidium pullulans; 24 h) | MIC raw data A. pullulans (Aureobasidium pullulans; parallel 1 of three) | MIC raw data A. pullulans (Aureobasidium pullulans; parallel 2 of three) | MIC raw data A. pullulans (Aureobasidium pullulans; parallel 3 of three)
50 µM: MIC C. albicans ([11]; ATCC 10231, 24 h) | MIC raw data C. albicans ([11]; parallel 1 of three) | MIC raw data C. albicans ([11]; parallel 2 of three) | MIC raw data C. albicans ([11]; parallel 3 of three)
0.78 to 6.25 µM: MIC range towards bacteria [10]
